Measured values taken from article PMC5310922, “A high-throughput phenotypic screen identifies clofazimine as a potential treatment for cryptosporidiosis” (PLoS Neglected Tropical Diseases, 2017).
Like-named read-outs stand apart in the source and are kept apart here.

What was measured:
[1] = system: Cryptosporidium hominis (TU502); assay: C. hominis proliferation in HCT-8 cells, 48 h high-content imaging assay; format: cell-based; details: Cryptosporidium hominis
Procedure: Methods for continuous, in vitro cultivation of Cryptosporidium spp. have not been well established. Instead, in vivo oocyst propagation of C. parvum is performed in calves, a more promiscuous Cryptosporidium species for animal and human infections. For C. hominis, gnotobiotic piglets are the primary means of propagation. The calf is the more accessible model, making C. parvum the more convenient species to screen. However, C. hominis is equally clinically relevant with regards to human cryptosporidiosis. […] High purity powders of the 10 filtered C. parvum Bioactives screen hits and both GHCDL screen hits were tested against C. hominis (TU502) to confirm activity against both species.
(§1) Cells were then plated (5 μL/well) into 1536-well assay plates at a density of 5.5×10^5 cells/mL (2,750 cells/well).
C. parvum oocysts (Iowa strain, isolated from infected calves) were purchased from the Sterling Parasitology Laboratory, University of Arizona, and stored at 4°C for ≤ 3 months in an antibiotic solution (0.01% Tween 20 containing 100 U/mL penicillin and 100 μg/mL gentamicin). C. hominis oocysts (TU502, isolated from gnotobiotic piglets) were purchased from the Tzipori Laboratory, Cummings School of Veterinary Medicine, Tufts University, and stored at 4°C for ≤ 2 weeks in an antibiotic solution (100 U/mL penicillin and 100 μg/mL streptomycin). For infection of assay plates, 24 h after cell seeding, oocysts were excysted and prepared for inoculation as previously described. Briefly, the oocysts were diluted into 1 mL pre-warmed 10 mM HCl and then incubated in a 37°C water bath for 10 min. Oocysts were then pelleted at 3,000×g for 1 min in a microcentrifuge (Thermo), and the supernatant was carefully aspirated. Oocysts were resuspended in 2 mM sodium taurocholate in DPBS++ (with 0.9 mM CaCl2 and 0.5 mM MgCl2) and incubated at room temperature for 20 min. After incubation in bile salts, the oocysts were diluted 1:100 and free sporozoites and intact oocysts were enumerated to determine the percentage of excystation.
Plates were then washed twice with phosphate buffered saline (PBS). […] To prevent non-specific binding, the cells were blocked with SuperBlock™ T20 blocking agent (Thermo) for 1 h at room temperature. Cryptosporidium parasites were stained with 1 μg/mL fluorescein isothiocyanate (FITC)-conjugated Vicia villosa lectin (Vector Laboratories) in 1:10 diluted SuperBlock™ in PBS-T, supplemented with 3 μM 4',6-diamidino-2-phenylindole (DAPI) to visualize host cell nuclei. Staining was for 1 h at room temperature in the dark. Finally, cells were washed twice with PBS-T and the plates were sealed with adhesive foil. The plates were imaged with a CellInsight CX5 High Content Screening Platform (Thermo) with a 10× objective. […] The software identified primary objects (HCT-8 host cells) and spots within allowed distances to the nuclei (Cryptosporidium). Both cytotoxicity against HCT-8 cells (number of nuclei relative to DMSO-treated controls) and Cryptosporidium inhibition (spot counts relative to DMSO-treated controls) were assessed.
Images were processed by the HCS Studio Scan software, and Selected Object Count (HCT-8 cells) and Spot Count (Cryptosporidium) were analyzed in Genedata Screener (v13.0-Standard). Spot Count and Selected Object Count were normalized to neutral controls minus inhibitors (floxuridine for Spot Count, and puromycin for Selected Object Count).

in vitro = details: human
Procedure: as §1
Plates were then washed twice with phosphate buffered saline (PBS). […] To prevent non-specific binding, the cells were blocked with SuperBlock™ T20 blocking agent (Thermo) for 1 h at room temperature. Cryptosporidium parasites were stained with 1 μg/mL fluorescein isothiocyanate (FITC)-conjugated Vicia villosa lectin (Vector Laboratories) in 1:10 diluted SuperBlock™ in PBS-T, supplemented with 3 μM 4',6-diamidino-2-phenylindole (DAPI) to visualize host cell nuclei. Staining was for 1 h at room temperature in the dark. Finally, cells were washed twice with PBS-T and the plates were sealed with adhesive foil. The plates were imaged with a CellInsight CX5 High Content Screening Platform (Thermo) with a 10× objective. […] For 1536-well format assays (primary screening, triplicate reconfirmation, and dose-response reconfirmation, one microscopic field (802,511.39 μm^2) per well, and for the 384-well washout assay, 4 fields per well were captured. The software identified primary objects (HCT-8 host cells) and spots within allowed distances to the nuclei (Cryptosporidium). Both cytotoxicity against HCT-8 cells (number of nuclei relative to DMSO-treated controls) and Cryptosporidium inhibition (spot counts relative to DMSO-treated controls) were assessed.
Images were processed by the HCS Studio Scan software, and Selected Object Count (HCT-8 cells) and Spot Count (Cryptosporidium) were analyzed in Genedata Screener (v13.0-Standard). Spot Count and Selected Object Count were normalized to neutral controls minus inhibitors (floxuridine for Spot Count, and puromycin for Selected Object Count). For single-point primary assay plates, an additional run-wise median correction was applied to reduce screen artifacts (e.g. uneven dispense), whereas no correction was applied to triplicate reconfirmation and dose-response plates. For primary screening, a compound is considered a hit by a ≥ 70% reduction in Corrected Spot Count. Compounds that caused moderate cytotoxicity were filtered out (i.e., excluding all Corrected Selected Object Counts ≤ -60%). Dose-response curves were fit with Genedata Analyzer using the Smart Fit function.

[2] = in HCT-8 cells, 48 h, value (SD; n), read-out: C. hominis 48H Assay EC50 [µM] (SD; n)

| EC50 [1, 2] | Compound | CC50 at 48 h (in vitro) | EC50 ([1]; HCT-8, same in vitro host cell line, read-out: EC50 against C. hominis) | CC50 at 48 h (in vitro; HCT-8 cells) |
| --- | --- | --- | --- | --- |
| 0.457 µM | CCOc1ccc2cc(-c3nn(CC4CCN(C)CC4)c4ncnc(N)c34)ccc2c1 [BKI-1294] | > 12500 nM |  |  |
| 0.341 µM | CC(C)/N=c1\cc2n(-c3ccc(Cl)cc3)c3ccccc3nc-2cc1Nc1ccc(Cl)cc1 [Clofazimine] |  | 0.34 µM | > 12500 nM |
